Drawing on ChEMBL document CHEMBL1133722 (J Med Chem, 2000), this text covers Ki for six compounds.

Holding throughout (assay type): cell-based, Cercopithecidae
Assay [1] concerns the target Kappa-type opioid receptor (Homo sapiens, UniProt P41145, E297A). Kind of assay: Binding affinity using [3H]diprenorphine as the radioligand against E297A mutant Opioid receptor kappa 1 in COS-7 cells.
Assay [2] concerns the target Kappa-type opioid receptor (Homo sapiens, UniProt P41145, E297K). Kind of assay: Binding affinity using [3H]diprenorphine as the radioligand against E297K mutant Opioid receptor kappa 1 in COS-7 cells.
The target in assay [3] is T1, Kappa-type opioid receptor (Homo sapiens, UniProt P41145). Kind of assay: Binding affinity using [3H]diprenorphine as the radioligand against wild-type Opioid receptor kappa 1 in COS-7 cells.
The target in assay [4] is T2, Mu-type opioid receptor (Homo sapiens, UniProt P35372). Kind of assay: Binding affinity using [3H]diprenorphine as the radioligand against wild-type Opioid receptor mu 1 in COS-7 cells.
The target of assay [5] is T2, Mu-type opioid receptor. Kind of assay: Binding affinity using [3H]diprenorphine as the radioligand against K303E Opioid receptor mu 1 in COS-7 cells.
The target of assay [6] is T1, Kappa-type opioid receptor. Kind of assay: Binding affinity using [3H]diprenorphine as the radioligand against wild-type Opioid receptor kappa 1r in COS-7 cells.

Chain of Kappa-type opioid receptor (Homo sapiens, UniProt P41145, E297K) (P41145 whole entry E297K): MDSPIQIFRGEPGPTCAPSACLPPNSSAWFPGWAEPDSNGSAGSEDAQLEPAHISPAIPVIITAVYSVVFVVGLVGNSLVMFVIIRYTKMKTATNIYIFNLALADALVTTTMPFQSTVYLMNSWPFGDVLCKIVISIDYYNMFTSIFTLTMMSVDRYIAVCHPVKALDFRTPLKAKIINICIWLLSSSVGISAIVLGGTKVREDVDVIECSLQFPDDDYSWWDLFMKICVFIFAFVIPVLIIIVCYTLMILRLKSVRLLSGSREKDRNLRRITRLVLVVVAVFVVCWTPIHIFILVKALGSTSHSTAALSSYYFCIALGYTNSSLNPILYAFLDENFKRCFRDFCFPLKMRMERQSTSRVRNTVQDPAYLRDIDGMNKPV
Chain of Kappa-type opioid receptor (Homo sapiens, UniProt P41145, E297A) (P41145 whole entry E297A): as the sequence (P41145 whole entry E297K) above, with K297A counted along it
T1 sequence (P41145 whole entry): as the sequence (P41145 whole entry E297K) above, with K297E counted along it
T2 sequence (P35372 whole entry): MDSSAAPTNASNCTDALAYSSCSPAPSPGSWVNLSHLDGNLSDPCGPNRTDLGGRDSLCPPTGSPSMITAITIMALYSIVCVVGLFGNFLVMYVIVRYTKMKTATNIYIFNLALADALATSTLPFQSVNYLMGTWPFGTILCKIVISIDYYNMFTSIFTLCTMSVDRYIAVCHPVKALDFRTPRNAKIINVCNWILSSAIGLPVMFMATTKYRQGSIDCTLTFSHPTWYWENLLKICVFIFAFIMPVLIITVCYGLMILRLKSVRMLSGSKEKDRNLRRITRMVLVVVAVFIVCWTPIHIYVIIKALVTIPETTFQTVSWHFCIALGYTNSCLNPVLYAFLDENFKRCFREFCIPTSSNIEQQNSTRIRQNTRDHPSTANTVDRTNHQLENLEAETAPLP

As to `CC(=O)N1CC[C@]23c4c5ccc(O)c4O[C@H]2c2[nH]c4c(c2C[C@@]3(O)[C@H]1C5)C[C@@]1(O)[C@H]2Cc3ccc(O)c5c3[C@@]1(CCN2CC1CC1)[C@H]4O5`, the Ki in assay [1] was found to be 104 nM; in assay [2], 104 nM; in assay [3], 23.6 nM; on Mu-type opioid receptor [4] it was 102 nM; on Mu-type opioid receptor [5] it was 42 nM.

Consider `CN1CC[C@]23c4c5ccc(O)c4O[C@H]2c2[nH]c4c(c2C[C@@]3(O)[C@H]1C5)C[C@@]1(O)[C@H]2Cc3ccc(O)c5c3[C@@]1(CCN2C)[C@H]4O5`, for which the Ki in assay [1] is above 1000 nM; in assay [2], above 1000 nM; in assay [3] it was 21.7 nM; at Mu-type opioid receptor [4], above 1000 nM; at Mu-type opioid receptor [5], 41.7 nM.

In the case of `CN1CC[C@]23c4c5ccc(O)c4O[C@H]2c2[nH]c4c(c2C[C@H]3[C@H]1C5)C[C@@]1(O)[C@H]2Cc3ccc(O)c5c3[C@@]1(CCN2CC1CC1)[C@H]4O5`, the inhibition constant (Ki) in assay [1] was 39.6 nM; in assay [2], 39.9 nM; in assay [3], 0.32 nM; on Mu-type opioid receptor [4], 40 nM; at Mu-type opioid receptor [5] it was 0.16 nM.

As to `COc1ccc2c3c1O[C@H]1c4[nH]c5c(c4C[C@@]4(O)[C@@H](C2)N(CC2CC2)CC[C@]314)C[C@@]1(O)[C@H]2Cc3ccc(O)c4c3[C@@]1(CCN2CC1CC1)[C@H]5O4`, the Ki in assay [1] worked out at 17 nM; in assay [2], 28 nM; in assay [3], 0.39 nM; on Mu-type opioid receptor [4], 276 nM; on Mu-type opioid receptor [5] it was 2.7 nM.

In the case of `COc1ccc2c3c1O[C@H]1c4[nH]c5c(c4C[C@@]4(O)[C@@H](C2)N(CC2CC2)CC[C@]314)C[C@@]1(O)[C@H]2Cc3ccc(O)c4c3[C@@]1(CCN2C)[C@H]5O4`, the Ki was above 1000 nM in assay [1]; above 1000 nM in assay [2]; 36.3 nM in assay [3]; 165 nM on Mu-type opioid receptor [4]; 52 nM at Mu-type opioid receptor [5].

`N=C(N)N1CC[C@]23c4c5ccc(O)c4O[C@H]2c2[nH]c4c(c2C[C@@]3(O)[C@H]1C5)C[C@@]1(O)[C@H]2Cc3ccc(O)c5c3[C@@]1(CCN2CC1CC1)[C@H]4O5`: the Ki was 189 nM in assay [2] and 0.57 nM in assay [6].
